Measurements published in US20030190322A1, “Immunostimulating properties of a fragment of tgf-beta” (priority 2000, published 2003).
No end group written: not given here.

Assays:
parvovirus peptide [1] = assay: ELISA antibody titre to parvovirus peptide in rabbits, TGF-29 dose experiment with Titermax adjuvant (Example 3); type: in vivo; conditions: group with highest dose TGF-29 (20 ug) plus 100 μg parvovirus peptide and Titermax adjuvant (preparation Iris); one rabbit, bleeding T3, 6 weeks after first immunisation
Method: Both preparations were subcutaneously injected into 2 groups of rabbits. Each injected dose was 0.1 mL and the preparations for a resulting volume between 0.4 and 0.5 mL was made as follows:
Each injected dose of 0.1 mL therefore contains approximate 4 ug TGF-29 and 100 ug parvovirus peptide.
Into the same vial 154 microliter H2O was added and the combined fractions subsequently mixed by stirring a few seconds and then transferred in drops, while stirring, into a small 1.8 mL plast vial preloaded with 250 microliter Titermax adjuvant. The resulting volume of the water-in-oil emulsion volume was a little more than 0.4 mL. Each injected dose of 0.1 mL therefore contains approximate 20 μg TGF-29 and 100 μg parvovirus peptide.
The rabbits were then immunised according to the normal standard immunisation procedure for antibody production in rabbits at a legal laboratory animal facility.
Before immunisation, a pre-immunisation serum sample (To) of each rabbit was collected. […]
The serum samples were analysed on an ELISA plate according to standard laboratory operations: Coating the plate bottom with parvo virus peptide derivative overnight, washings, incubation with serial dilutions of all serum samples, washings, incubation with HRP-Goat anti Rabbit 1 g, washings, incubation with substrate, stop reaction with acid, and reading of the plate.

parvovirus peptide [2] = assay: ELISA antibody titre to parvovirus peptide in rabbits immunised with Parv or Parv+TGF-29 (Example 1); type: in vivo; conditions: subcutaneous, 3 immunisations at 2 week intervals, freunds incomplete adjuvant
Method: Both preparations were subcutaneously injected into 2 groups of rabbits. The con-tent of each injected dose of 0.2 mL were;
50 microgram parvovirus peptide was dissolved in 0.05 mL PBS and subsequently mixed with 0.05 mL PBS by stirring. The combined fractions were then mixed with 0.1 mL freunds incomplete adjuvant by stirring.
50 microgram parvovirus peptide was dissolved in 0.05 mL PBS and subsequently mixed with 100 microgram of a crude fraction comprising TGF-29 dissolved in 0.05 mL PBS, and then the combined fractions were mixed with 0.1 mL freunds incomplete adjuvant by stirring,
The rabbits were immunised by subcuteous injection according to normal standard immunisation procedures for antibody production in rabbits at a legal laboratory animal facility.
Before immunisation, a pre-immunisation serum sample (T0) of each rabbit were collected. Two weeks after the last of 3 immunisations (given at 2 week intervals) an immune serum sample (T1) was collected from each rabbit. […]
The serum samples were analysed on an ELISA plate according to standard laboratory operations. Coating the plate bottom with parvo virus peptide derivative overnight, washings, incubation with serial dilutions of all serum samples, washings, incubation with HRP-Goat anti Rabbit 1 g, washings, incubation with substrate, stop reaction with acid, and reading of the plate.

| Substance | titer to the parvovirus peptide compared with T0 serum (highest of all bleedings) (parvovirus peptide [1]) | antibody titre to the parvovirus peptide, immune serum samples compared with T0 sera (parvovirus peptide [2]) |
| --- | --- | --- |
| ALDAAYCFRNVQDNCCLRPLYIDFKRDLG (cysteine pairing not given here) [TGF-29] | more than three 5-fold serial antiserum dilutions better than the corresponding T0 serum | – |
| acetyl-CDGAVQPDGGQPAVRNER-amide (Ac-CDGAVQPDGGQPAVRNER-NH2) [Parv] | – | Non-detectable or less antibody titre to the parvovirus peptide than in the corresponding to sera |
